Active and inactive are the calls of the source. The rule behind the calls is not given here.
Legend:
[1] = Apparent volume of distribution in male Sprague-Dawley rat at 2 mg/kg, iv measured after 12 hrs by LC-MS/MS analysis; assay type: ADME, organism-based; details: in vivo, read-out: Vz
[2] = Cmax in male Sprague-Dawley rat at 2 mg/kg, iv measured after 12 hrs by LC-MS/MS analysis; assay type: ADME, organism-based; details: in vivo
4T1 [3] = experiment: Downregulation of PARP1 expression in mouse 4T1 cells at 2 uM incubated for 24 hrs in presence of olaparib by Western blot analysis; assay type: functional, cell-based
[4] = biological target: Programmed cell death 1 ligand 1 (Mus musculus) (UniProt Q9EP73); experiment: Induction of PD-L1 degradation in mouse B16-F10 cells assessed as decrease in PD-L1 protein level at 5 uM incubated for 24 hrs by DAPI staining based immunofluorescence analysis; assay type: cell-based
Chain of Programmed cell death 1 ligand 1 (Mus musculus) (Q9EP73 whole entry): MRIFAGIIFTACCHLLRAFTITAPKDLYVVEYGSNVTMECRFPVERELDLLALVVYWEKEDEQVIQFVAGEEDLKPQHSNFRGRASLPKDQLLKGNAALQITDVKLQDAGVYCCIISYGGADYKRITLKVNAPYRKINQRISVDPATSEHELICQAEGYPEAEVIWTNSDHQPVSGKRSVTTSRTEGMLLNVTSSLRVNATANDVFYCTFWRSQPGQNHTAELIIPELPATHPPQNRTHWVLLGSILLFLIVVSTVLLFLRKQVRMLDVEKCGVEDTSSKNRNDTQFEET

[5] = MRT (0 to t) in male Sprague-Dawley rat at 2 mg/kg, iv measured after 12 hrs by LC-MS/MS analysis; assay type: ADME, organism-based; details: in vivo
[6] = Half-life in male Sprague-Dawley rat at 20 mg/kg, po measured after 12 hrs by LC-MS/MS analysis; assay type: ADME, organism-based; details: in vivo
B16-F10 [7] = experiment: Inhibition of cell migration in mouse B16-F10 cells assessed as wound area at 10 uM incubated for 24 hrs by wound healing assay (reference value: 50.36 +/- 1.68 %); assay type: functional; parameters: scale not given: the % may be the effect or the level left
[8] = biological target: T1, Histone deacetylase 3 (Mus musculus) (UniProt O88895); experiment: Inhibition of HDAC3 in mouse B16-F10 cells assessed as increase in acetylated histone H3 level at 5 uM incubated for 24 hrs by DAPI staining based immunofluorescence analysis; assay type: cell-based
T1 sequence (whole entry): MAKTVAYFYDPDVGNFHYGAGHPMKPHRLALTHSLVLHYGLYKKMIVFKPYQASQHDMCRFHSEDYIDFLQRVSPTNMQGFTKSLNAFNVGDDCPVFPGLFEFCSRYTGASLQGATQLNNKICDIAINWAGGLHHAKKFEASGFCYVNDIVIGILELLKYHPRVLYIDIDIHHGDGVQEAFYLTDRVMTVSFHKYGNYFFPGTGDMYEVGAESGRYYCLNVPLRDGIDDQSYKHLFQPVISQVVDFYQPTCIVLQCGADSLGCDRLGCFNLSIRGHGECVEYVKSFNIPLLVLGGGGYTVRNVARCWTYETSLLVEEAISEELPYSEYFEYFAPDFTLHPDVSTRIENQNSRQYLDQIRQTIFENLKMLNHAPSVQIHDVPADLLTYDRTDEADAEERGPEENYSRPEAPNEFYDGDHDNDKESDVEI

[9] = biological target: Programmed cell death 1 ligand 1 (Mus musculus) (UniProt Q9EP73); experiment: Induction of PD-L1 degradation in mouse B16-F10 cells assessed as decrease in PD-L1 protein level at 2 uM measured after 24 hrs in presence of CA-074 by Western blot analysis; assay type: cell-based
Histone deacetylase 5 = Histone deacetylase 5 (Homo sapiens, UniProt Q9UQL6); experiment: Inhibition of recombinant HDAC5 (unknown origin) using Boc-Lys(trifluoroacetyl)-AMC as substrate preincubated for 1 hr followed by substrate addition and measured after 2 hrs by fluorescence based micro plate reader analysis
Chain of Histone deacetylase 5 (Q9UQL6 whole entry): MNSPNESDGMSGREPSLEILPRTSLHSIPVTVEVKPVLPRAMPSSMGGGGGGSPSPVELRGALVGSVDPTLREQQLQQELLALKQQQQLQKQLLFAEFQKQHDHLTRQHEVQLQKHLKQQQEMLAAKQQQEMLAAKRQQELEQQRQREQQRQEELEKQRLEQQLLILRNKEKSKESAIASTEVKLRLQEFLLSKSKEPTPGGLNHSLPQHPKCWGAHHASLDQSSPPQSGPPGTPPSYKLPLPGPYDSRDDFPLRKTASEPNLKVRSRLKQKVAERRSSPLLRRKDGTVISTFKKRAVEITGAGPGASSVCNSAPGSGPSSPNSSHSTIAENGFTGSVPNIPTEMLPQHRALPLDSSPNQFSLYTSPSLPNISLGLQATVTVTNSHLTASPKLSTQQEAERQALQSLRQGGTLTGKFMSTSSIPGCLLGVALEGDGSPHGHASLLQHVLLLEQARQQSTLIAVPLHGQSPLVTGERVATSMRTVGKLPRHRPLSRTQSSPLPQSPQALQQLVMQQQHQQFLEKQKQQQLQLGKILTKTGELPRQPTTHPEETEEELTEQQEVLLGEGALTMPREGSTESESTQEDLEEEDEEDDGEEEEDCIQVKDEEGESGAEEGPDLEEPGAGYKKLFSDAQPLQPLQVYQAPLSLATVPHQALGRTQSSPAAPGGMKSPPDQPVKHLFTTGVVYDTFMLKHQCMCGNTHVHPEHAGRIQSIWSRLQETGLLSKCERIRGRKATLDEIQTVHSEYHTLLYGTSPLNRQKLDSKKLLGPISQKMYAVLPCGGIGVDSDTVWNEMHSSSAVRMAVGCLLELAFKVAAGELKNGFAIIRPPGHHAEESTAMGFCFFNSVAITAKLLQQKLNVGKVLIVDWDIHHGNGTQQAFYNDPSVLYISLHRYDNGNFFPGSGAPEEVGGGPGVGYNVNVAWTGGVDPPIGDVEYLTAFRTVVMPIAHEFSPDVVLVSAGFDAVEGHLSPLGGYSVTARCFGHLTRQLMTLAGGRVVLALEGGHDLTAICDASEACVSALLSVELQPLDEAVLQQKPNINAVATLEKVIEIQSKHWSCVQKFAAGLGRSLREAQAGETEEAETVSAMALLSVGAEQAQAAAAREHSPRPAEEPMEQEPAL

Mus musculus [10] = experiment: In vivo induction of PD-L1 degradation in male C57BL/6 mouse model implanted with mouse B16-F10 cells assessed as decrease in PD-L1 protein expression in tumor at 50 mg/kg, po co-administered with NP-19 as once daily dosage via gavage for 14 days by Western blot analysis; assay type: functional, organism-based; details: time 14.0 day
[11] = Toxicity in male C57BL/6 mouse implanted with mouse B16-F10 cells assessed as body weight loss at 50 mg/kg, po administered once daily for 14 days; assay type: organism-based; details: in vivo, 336 h, time 14 day
[12] = Clearance in male Sprague-Dawley rat at 20 mg/kg, po measured after 12 hrs by LC-MS/MS analysis; assay type: ADME, organism-based; details: in vivo
4T1 [13] = experiment: Antitumor activity against mouse 4T1 cells implanted in female BALB/c mouse model assessed as decrease in PAPR1 expression in tumor co-administrated orally with olaparib as once daily dose via gavage for 14 days by Western blot analysis; assay type: functional, cell-based; details: route po, time 14.0 day
[14] = Toxicity in male C57BL/6 mouse implanted with mouse B16-F10 cells assessed as histopathological changes in liver at 50 mg/kg, po co-administered with NP-19 as once daily dosage via gavage for 14 days by HandE staining based microscopic analysis; assay type: organism-based; details: in vivo, 336 h, time 14 day
[15] = MRT (0 to t) in male Sprague-Dawley rat at 20 mg/kg, po measured after 12 hrs by LC-MS/MS analysis; assay type: ADME, organism-based; details: in vivo
4T1 [16] = experiment: Antitumor activity against mouse 4T1 cells implanted in female BALB/c mouse model assessed as induction of DNA damage by measuring increase in gamma-H2AX expression in tumor co-administrated orally with olaparib as once daily dose via gavage for 14 days by Western blot analysis; assay type: functional, cell-based; details: route po, time 14.0 day
B16-F10 [17] = experiment: Induction of DNA damage in mouse B16-F10 cells assessed as increase in gamma-H2AX expression at 2 uM incubated for 24 hrs in presence of olaparib by Western blot analysis; assay type: functional, cell-based
Mus musculus [18] = experiment: In vivo induction of PD-L1 degradation in male C57BL/6 mouse model implanted with mouse B16-F10 cells assessed as decrease in PD-L1 protein expression in tumor at 50 mg/kg, po co-administered with NP-19 as once daily dosage via gavage for 14 days by DAPI staining based immunofluorescence analysis; assay type: functional, organism-based; details: time 14.0 day
Histone deacetylase 2 = Histone deacetylase 2 (Homo sapiens, UniProt Q92769); experiment: Inhibition of recombinant HDAC2 (unknown origin) using Boc-Lys(acetyl)-AMC as substrate preincubated for 1 hr followed by substrate addition and measured after 2 hrs by fluorescence based micro plate reader analysis
Chain of Histone deacetylase 2 (Q92769 whole entry): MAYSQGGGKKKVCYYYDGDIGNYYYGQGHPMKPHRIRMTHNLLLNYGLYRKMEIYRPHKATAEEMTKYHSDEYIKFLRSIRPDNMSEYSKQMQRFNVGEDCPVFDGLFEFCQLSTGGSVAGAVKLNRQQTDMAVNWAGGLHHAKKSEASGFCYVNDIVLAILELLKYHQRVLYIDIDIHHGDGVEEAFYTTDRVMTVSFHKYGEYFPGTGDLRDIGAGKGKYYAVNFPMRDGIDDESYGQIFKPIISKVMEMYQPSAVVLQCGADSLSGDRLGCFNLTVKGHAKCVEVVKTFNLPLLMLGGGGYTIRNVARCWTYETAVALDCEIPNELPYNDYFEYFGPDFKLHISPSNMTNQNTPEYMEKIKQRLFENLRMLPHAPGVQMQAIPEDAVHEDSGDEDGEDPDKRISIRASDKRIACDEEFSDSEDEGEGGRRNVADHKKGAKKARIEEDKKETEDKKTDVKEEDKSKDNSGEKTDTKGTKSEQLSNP

Mus musculus [19] = experiment: In vivo induction of PD-L1 degradation in male C57BL/6 mouse model implanted with mouse B16-F10 cells assessed as decrease in PD-L1 protein expression in tumor at 50 mg/kg, po administered once daily via gavage for 14 days by Western blot analysis; assay type: functional, organism-based; details: time 14.0 day
4T1 [20] = experiment: cells; assay type: functional, cell-based; details: Mus musculus, 4T1, 72 h
Mus musculus [21] = experiment: Immunomodulatory activity in male C57BL/6 mouse model implanted with mouse B16-F10 cells assessed as increase in CD3+ CD4+ T cells in tumor at 50 mg/kg, po co-administered with NP-19 as once daily dosage via gavage for 14 days by flow cytometric analysis (reference value: 3.1 %); assay type: functional; details: time 14 day
[22] = AUC (0 to 12 hrs) in male Sprague-Dawley rat at 20 mg/kg, po measured after 12 hrs by LC-MS/MS analysis; assay type: ADME, organism-based; details: in vivo
[23] = VRT (0 to infinity) in male Sprague-Dawley rat at 2 mg/kg, iv measured after 12 hrs by LC-MS/MS analysis; assay type: ADME, organism-based; details: in vivo
[24] = biological target: T1, Histone deacetylase 3 (Mus musculus); experiment: Inhibition of HDAC3 in mouse 4T1 cells assessed as increase in histone H3 acetylation level at 5 to 20 uM incubated for 24 hrs by Western blot analysis; assay type: cell-based; details: dose 5-20 µM
4T1 [25] = experiment: Antitumor activity against mouse 4T1 cells implanted in female BALB/c mouse model assessed as decrease in PAPR1 expression in tumor co-administrated orally with olaparib as once daily dose via gavage for 14 days by immunohistochemistry analysis; assay type: functional, cell-based; details: route po, time 14.0 day
[26] = Ratio of AUC (0 to t) to AUC (0 to infinity) in male Sprague-Dawley rat at 2 mg/kg, iv measured after 12 hrs by LC-MS/MS analysis; assay type: ADME, organism-based; details: in vivo

CCCNNC(=O)c1ccc(Cn2c3ccccc3c3c(-c4ccccn4)nc4ccccc4c32)cc1
Vd [1]: 2.17 L/kg | Cmax [2]: 1040 ng/mL | Activity (4T1 [3]): Active | Activity [4]: Active | MRT last at 12 h [5]: 0.738 h | half-life [6]: 2.03 h | Activity (B16-F10 [7]): 10.25% | inhibition [8]: Active | Activity [9]: Not active; Ctsb-Mediated Lysosomal Degradation Mechanism Is Observed | IC50 (Histone deacetylase 5): > 10 µM | Activity (Mus musculus [10]): Active | Activity [11]: Non-toxic | CL/F [12]: 41.1 mL/min/kg | Activity (4T1 [13]): Active | Activity [14]: Non-toxic | MRT last at 12 h [15]: 4.43 h | Activity (4T1 [16]): Active | Activity (B16-F10 [17]): Active | Activity (Mus musculus [18]): Active | IC50 (Histone deacetylase 2): 9.77 µM | Activity (Mus musculus [19]): Active | IC50 (4T1 [20]): 8.26 µM | Activity (Mus musculus [21]): 32% | AUC(0-t) at 12 h [22]: 7830 ng·h/mL | VRT [23]: 0.664 hr2 | inhibition [24]: Active | Activity (4T1 [25]): Active | Ratio AUC [26]: 99.95%

— ChEMBL document CHEMBL6096732 (J Med Chem, 2025)
